# Where “and” joins values, the source holds several entries; their conditions need not be identical. Identical values can stand only once. Like-named read-outs stand apart in the source and are kept apart here.
# B1: ChD: chlorothalonil dehalogenase from Pseudomonas species strain CTN-3, amino acid SEQ ID NO: 168 (protein, listed as Pseudomonas sp.)
# chain: MPPGCSGLCSFVGLTMPLKFSGVLCASLLTITLSVAAHATELILDFNKVQMRSQQLAPGVYAHLPADSAELNAKGGVAGTSGGLIVGTRGAMLIETMLNRRLFDQVQALAKKEALGLPLLYAVNTSYHGDHSYGNMYLKAPTRVIQSTKTRDYVDGHLADDKAFMVKNFGAGRGVEQITARTGDILVPPGGRVSVDLGGKTVEIIDFGFAQTGGDLFVWEPQSKVMWTGNAVVASKPALPWLLDGKLVETLATLQKVYDFLPPDATIVPGHGVPMAREGLRWHLDYLAAVQAGVKDALARKLSLEQTVTELKMPEFRGYVLFDWVHPDLNVPAAYKDLAARP
# Assays:
# [1] = HPLC; for Dicamba (ppm): samples diluted to expected 35 ppm
# Description: A Bacillus subtilis (A64) control reaction, which was supernatant with no SM1 enzyme was performed in parallel. The reactions were incubated at 37° C. with 400 rpm stirring for two hours. Aliquots of the reactions were collected at time 0 (T0), 1 hour, and 2 hours, and frozen at −80° C.
# HPLC column (Kinetex® 5 μm C18 100 Å, LC Column 50×4.6 mm) was equilibrated for 15 minutes with 35% acetonitrile and 65% 10 mM ammonium acetate with 0.1% formic acid in water. A volume of 10 μL of each sample was injected into Waters 2695 Separations Module with a 2996 Photodiode Array Detector. Samples were run isocratically (35% acetonitrile and 65% 10 mM ammonium acetate with 0.1% formic acid in water) for 2 minutes. […] An average of 3 measurements was run for each treatment sample.
# The HPLC results as reported in FIG. 2 are the average of 3 sample measurements.
# soybean seedlings = test: Spray of enzyme-treated dicamba solution onto soybean seedlings; type: in vivo; conditions: 2.5-week-old soybean seedlings sprayed with 208 μM dicamba solution with or without immobilized enzyme, one week
# Description: Salicylate monooxygenase (SM, SEQ ID NO: 21) and hydroxyphenylacetate monooxygenase (HPAM, SEQ ID NO: 30) were immobilized on particles. […] Aliquots (1 ml) were taken from incubated samples at 0 minutes, 10 minutes, 30 minutes, 1 hour, 5 hours, 24 hours and 30 hours after the introduction of SM and immediately frozen to stop the detoxification reaction. NADPH consumption was quantified by measuring loss of absorbance at 340 nm using a spectrophotometer. Results for SM are shown in panel A of FIG. 10 and results for HPAM are shown in panel A of FIG. 11. Consumption of NADPH is proportional to the degradation of dicamba.
# Immediately after taking the absorbance measurements, the 1 ml aliquots were mixed with a nonionic organosilicone surfactant copolymer (0.1% SILWET L77) and 200 μL of the mixture was sprayed onto 2.5-week-old soybean seedlings (six plants per treatment group, on average). The use of the surfactant ensured even distribution of the solutions on the plants. Control plants were sprayed with water+surfactant alone or dicamba+surfactant alone. After one week, the degree of herbicide damage or the degree of protection from dicamba-induced injury (in plants treated with SM) was assessed visually.
# soybean plants [2] = test: Trifoliate damage scoring of soybean treated with SM1-dicamba reaction products; type: in vivo; parameters: key: 0: No visible damage; 1: youngest trifoliate has moderate yellowing or curling; 2: youngest trifoliate has moderate yellowing or curling; 3: youngest trifoliate has severe yellowing or curling; 4: youngest trifoliate is completely dead or shriveled; 5: plant is completely necrotic (dead); conditions: V1 soybean (Morsoy Xtra), 100 μL reaction product diluted 1:24 with 0.01% SILWET L-77 on trifoliate leaves, 6 plants; Time (hours) 2; scale 0-5
# Source text: These SM1-dicamba degradation products were applied to soybean seedlings (variety, Morsoy Xtra). […] The plants were scored based on trifoliate damage using the scale as described in Table 27.
# [3] = Spray tank cleaning procedure using salicylate monooxygenase to remove dicamba; conditions: spray application using dicamba
# soybean = test: Spray tank dicamba treated with ChD crude cell lysate, applied to field soybean; type: in vivo; conditions: field soybean V2-V3, 2 ml of tank sample (about 200 mg/L dicamba, with or without 5% v/v crude cell lysate for 10 minutes), one week after application (FIG. 15)
# Description: Chlorothalonil dehalogenase (ChD, SEQ ID NO: 168) was prepared as a crude cell lysate as described above in Example 5. […] A 5% v/v solution of the crude cell lysate containing the ChD enzyme was added and the tank was run for an additional 10 minutes. […] Each of the samples was frozen immediately after collection from the tank. Samples were transported to the field on ice to ensure that enzyme activity was halted.
# soybean plants [4] = test: V1 soybean bioassay of dicamba reacted with ChD with or without MnSO4
# Description: Soybean plants (variety Morsoy Xtra) were planted in Timberline soil (2 seeds per pot) and grown for 12 days under controlled environmental growth conditions: 300 μmol m^−2 s^−1 (light photons) for a 13/11 light/day cycle and a 21° C. day/15° C. night temperature range until the V1 stage of development.
# The dilution to achieve 100 ppm or 100 mg/L was made in 25 mM HEPES pH 7 in a 10 mL total volume. […] The ChD enzyme production was centrifuged to remove any cellular debris and then divided into aliquots of 100 μL containing the Bacillus subtillis (A64) filtrate with the ChD expressed enzyme. […] The reactions were incubated at 37° C. with 400 ppm stirring for two hours. Aliquots of the reactions were collected and stored at −80° C.
# [5] = Absorbance spectra assay of dicamba degradation by ChD or CAC
# [6] = oxidation of NADH
# Source text: Spectra were read from 200-700 nm with a BioTek SYNERGY HTX plate reader (BioTek Instrument Inc.).
# NADH disappears when the molecule is oxidized to NAD^+.
# sensitive plants = conditions: in vivo; cited from earlier work
# [7] = Absorbance spectra assay of mecoprop degradation by ChD or CAC; type: biochemical; conditions: one hour at 37° C.
# Description: (§1) Small scale (1 mL) assays were performed to evaluate the ability of ChD and CAC to degrade MCPA-4 amine or mecoprop.
# (§2) MCPA-4 amine and mecoprop have absorbance maxima (Amax) at approximately 230 and 280 nm. […] MCPA-4 amine or mecoprop end product generation is directly proportional to the degradation MCPA-4 amine or mecoprop, respectively.
# [8] = Absorbance spectra assay of MCPA-4 amine degradation by ChD or CAC; type: biochemical; conditions: one hour at 37° C.
# Description: as §1, §2
# [9] = Sequestration of dicamba by ChD (3 kDa filter, absorbance at 230 nm); type: binding; conditions: dicamba 100 mg/L, 10, 20, 30 and 40 uL enzyme solution, 5 minutes at 37° C. (FIG. 18)
# Description: To four of the tubes, enzyme solution was added to four of the tubes at 10, 20, 30, and 40 uL rates. The two tubes without the enzyme solution served as controls for the experiment. When the enzyme was added, five of the tubes (one of the 0 uL enzyme tubes, and all of the tubes with the enzyme added) were placed in the Eppendorf Thermomixer R for 5 minutes, at 37° C., and 800 rpm. After the incubation period, the tubes were removed from the heat and placed on ice to stop the reaction. […] These new tubes were spun at 1400 rpm for five minutes. When the spin was completed, 100 uL of the top and bottom fractions were added into a 96-well UV-Star plate. Spectral readings were then taken from 200 nm to 340 nm. The reads for the buffer alone controls were subtracted from the experimental values. The relative difference between the control without enzyme added and the experimental samples with enzyme added was calculated at 230 nm.
# [10] = Absorbance spectra assay of 2,4-D degradation by ChD or CAC; type: biochemical; conditions: one hour at 37° C.
# [11] = dicamba 100 ppm, n=6, scale 0-5
# [12] = dicamba (CLASH) 200 mg/L alone (no enzyme), 50 mM HEPES pH 7.0, one hour at 37° C.
molecule,measurement,setting,value
"COc1c(Cl)ccc(Cl)c1C(=O)O [Dicamba, 3,6-dichloro-2-methoxybenzoic acid]",Percent Dicamba Concentration Relative to T0 control,[1]; Time 0 hours,100.0%
same,Dicamba (ppm),"[1]; Time 0 hours, 25 mM HEPES pH 7, 37° C.",34.9 ppm
same,Percent Dicamba Concentration Relative to T0 control,[1]; Time 1 hour,113.6%
same,Dicamba (ppm),"[1]; Time 1 hour, 25 mM HEPES pH 7, 0.5 mM NADH where stated, 37° C.",39.7 ppm
same,Percent Dicamba Concentration Relative to T0 control,[1]; Time 2 hours,106.0%
same,Dicamba (ppm),"[1]; Time 2 hours, 25 mM HEPES pH 7, 0.5 mM NADH where stated, 37° C.",37.0 ppm
same,"herbicide damage or protection from dicamba-induced injury, assessed visually",soybean seedlings,significant curling of the leaves and stunted growth
same,average trifoliate damage score,soybean plants [2],4
same,safe zone concentration in rinsate (no injury or harm to the plant or the environment),[3],≤ 15 mg/L
same,damage to or protection of soybean crop (size and growth vs untreated control),soybean,significant damage to the crops
same,Average Epinasty Score,soybean plants [4]; [11],3.0
same,average trifoliate damage score,soybean plants [4]; [11],3.5
same,average trifoliate damage score,"soybean plants [4]; dicamba alone at 100 ppm, 150 ppm and 200 ppm",3.5-3.6
same,Absorbance Maxima at Wavelength (λ) 230,[5]; [12],1.597 and 1.5967
same,Absorbance Maxima at Wavelength (λ) 259,[5]; [12],0.1597
same,Absorbance Maxima at Wavelength (λ) 280,[5]; [12],0.2845
same,Absorbance at 340 nM,[6]; Time 1 hour,0.059
same,Absorbance at 340 nM,[6]; Time 2 hours,0.058
same,Absorbance at 340 nM,[6]; Time T0,0.056
same,dicamba spray level at which sensitive plants show herbicide damage with pronounced symptoms,sensitive plants,0.017 kg/ha
B1,Percent (%) increase in 252 λ (end-product formed) compared to Mecoprop control,[7]; mecoprop 200 mg/L + enzyme at 20X dilution (5 μM),164%
same,Percent (%) increase in 252 λ (end-product formed) compared to Mecoprop control,[7]; mecoprop 200 mg/L + enzyme at 40X dilution ([…]),129%
same,damage to or protection of soybean crop (size and growth vs untreated control),soybean,almost complete protection of the plants
same,Percent (%) increase in 252 λ (end product formed) compared to MCPA-4-Amine control,[8]; MCPA-4 amine 200 mg/L + enzyme at 20X dilution (5 μM),464%
same,Percent (%) increase in 252 λ (end product formed) compared to MCPA-4-Amine control,[8]; MCPA-4 amine 200 mg/L + enzyme at 40X dilution ([…]),128.9%
same,dicamba in a bound state (relative absorbance at 230 nm of 3 kDa filter fractions),[9],dose-dependent effect
same,Percent (%) increase in 259 λ (end product formed) compared to dicamba control,"[5]; dicamba 200 mg/L + enzyme at 20X dilution (5 μM), one hour at 37° C.",501%
same,"Percent (%) increase in 252 λ, (end product formed) compared to 2,4-D control","[10]; 2,4-D 200 mg/L + enzyme at 20X dilution (5 μM)",196%
same,"Percent (%) increase in 252 λ, (end product formed) compared to 2,4-D control","[10]; 2,4-D 200 mg/L + enzyme at 40X dilution ([…])",122%

# Reference: US10428347B2, “Herbicide-detoxifying enzymes and uses thereof” (priority 2017, dated 2019)
